The record followed here is ChEMBL document CHEMBL1144500, “Design and synthesis of Rho kinase inhibitors (II)” (Bioorg Med Chem, 2007).

SMILES strings stand for the structures. In brackets after ≈: the same amount, converted by molar mass.

Series [1] deals with Rho-associated protein kinase (Homo sapiens, UniProt O75116+Q13464).
Series [2] can be described thus: Solubility in 50 mM KH2PO4 containing 24 mM NaOH. The format is physicochemical.
The nature of series [3]: Solubility in 0.086N HCl containing 34 mM NaCl. The format is physicochemical.
Series [4] can be described thus: Solubility in water. In kind it is physicochemical.

`Nc1ccc(CN2CCCC(Nc3ccc4[nH]ncc4c3)C2)cc1` (stereo not drawn): the IC50 in series [1] was determined as 10 nM. This counts as double-digit nanomolar.
Consider `c1ccc(CN[C@H]2CC[C@@H](Nc3ccc4[nH]ncc4c3)CC2)cc1`, for which the IC50 in series [1] worked out at 320 nM.
For the compound `O=C(NCc1c(F)cccc1F)Nc1ccc2[nH]ncc2c1`, the solubility in series [2] was < 1 µg/mL; in series [3], 5 µg/mL (≈ 16.5 µM); in series [4], 5 µg/mL (≈ 16.5 µM). The IC50 in series [1] came out at 85 nM.
`Clc1ccccc1CN1CCCC(Nc2ccc3[nH]ncc3c2)C1` (stereo not drawn) returned an IC50 in series [1] of 13 nM.
In turn, `O=C(NC1CCN(Cc2ccccc2)CC1)c1ccc2[nH]ncc2c1` yielded an IC50 in series [1] of 540 nM.
Consider `CC(C)CCN1CCCC(Nc2ccc3[nH]ncc3c2)C1` (stereo not drawn), for which, in series [1], the IC50 is on record as 340 nM.
`c1c[nH]c(CN2CCCC(Nc3ccc4[nH]ncc4c3)C2)c1` (stereo not drawn): in series [1], the IC50 is 11 nM.
The compound `c1ccc(CN2CCC(Oc3ccc4[nH]ncc4c3)CC2)cc1` displayed an IC50 in series [1] of 100 nM.
For the compound `O=C(NCc1c(Cl)cccc1Cl)Nc1ccc2[nH]ncc2c1`, the IC50 in series [1] came to 20 nM.
The same measure, in the same setting: the value for `Clc1cccc(CN2CCCC(Nc3ccc4[nH]ncc4c3)C2)c1` (stereo not drawn) was 19 nM.
`Clc1ccc(CN2CCCC(Nc3ccc4[nH]ncc4c3)C2)cc1` (stereo not drawn): in series [1], the IC50 stood at 11 nM.
The compound `c1ccc(CN2CCC(Nc3ccc4[nH]ncc4c3)C2)cc1` (stereo not drawn) had an IC50 in series [1] of 32 nM.
As to `Fc1ccc(CN2CCCC(Nc3ccc4[nH]ncc4c3)C2)cc1F` (stereo not drawn), in series [1], the 50% inhibitory concentration (IC50) was 10 nM.
Still for that read-out and setting: for `c1cc(CN2CCCC(Nc3ccc4[nH]ncc4c3)C2)co1` (stereo not drawn) the value was 180 nM; for `O=C(Nc1ccc2[nH]ncc2c1)C1CCN(Cc2ccccc2)CC1`, 136 nM; for `O=C(Nc1ccc2[nH]ncc2c1)C1CCCN(Cc2ccccc2)C1` (stereo not drawn), 18 nM.
`O=C(NCc1ccc(Cl)cc1Cl)Nc1ccc2[nH]ncc2c1` had an IC50 in series [1] of 220 nM.
`Fc1ccc(CN2CCC(CNc3ccc4[nH]ncc4c3)CC2)cc1`: the IC50 in series [1] is listed as > 10000 nM.
`Clc1ccccc1CN1CCC(Nc2ccc3[nH]ncc3c2)C1` (stereo not drawn): the IC50 in series [1] stood at 45 nM. This counts as double-digit nanomolar.
Turning to `O=C(NCc1ccccc1)Nc1ccc2[nH]ncc2c1`, the IC50 in series [1] was determined as 260 nM.
`c1cc(CN2CCCC(Nc3ccc4[nH]ncc4c3)C2)c[nH]1` (stereo not drawn): in series [1], the IC50 is reported as > 1000 nM.
Same read-out and setting: the value for `CN(CCNc1ccc2[nH]ncc2c1)Cc1ccccc1` was 7900 nM.
As for `c1ccc(CN2CCCC(Nc3ccc4[nH]ncc4c3)C2)nc1` (stereo not drawn), the IC50 in series [1] was determined as 240 nM.
With `CCCN1CCCC(Nc2ccc3[nH]ncc3c2)C1` (stereo not drawn), in series [1], the IC50 is 780 nM.
In the case of `Clc1ccccc1CN1CCC(Nc2ccc3[nH]ncc3c2)CC1`, the IC50 in series [1] was 440 nM. Against the preceding compound, the IC50 is about 1.8-fold lower.
With `Cc1n[nH]c2ccc(NC3CCCN(Cc4ccccc4)C3)cc12` (stereo not drawn), the IC50 in series [1] came out at 150 nM.
For the compound `Cc1ccc(CN2CCCC(Nc3ccc4[nH]ncc4c3)C2)cc1` (stereo not drawn), the IC50 in series [1] amounted to 9 nM.
Same read-out and setting: for `c1ccc(CN2CCCC(Nc3ccc4[nH]ncc4c3)C2)cc1` (stereo not drawn) the value was 20 nM; for `Cn1ncc2cc(NC3CCCN(Cc4ccccc4)C3)ccc21` (stereo not drawn), > 10000 nM.
Regarding `Clc1ccc(CN2CCC(Nc3ccc4[nH]ncc4c3)CC2)cc1`, the IC50 in series [1] was 290 nM.
In series [1], `Clc1cccc(CN2CCC(Nc3ccc4[nH]ncc4c3)CC2)c1` had an IC50 of 290 nM. That is a sub-micromolar value.
Compound `Nc1ccccc1CN1CCCC(Nc2ccc3[nH]ncc3c2)C1` (stereo not drawn) had an IC50 in series [1] of 85 nM.
The same measure, in the same setting: for `O=[N+]([O-])c1ccc(CN2CCCC(Nc3ccc4[nH]ncc4c3)C2)cc1` (stereo not drawn) the value was 87 nM; for `c1coc(CN2CCCC(Nc3ccc4[nH]ncc4c3)C2)c1` (stereo not drawn), 65 nM; for `COc1cc(CN2CCCC(Nc3ccc4[nH]ncc4c3)C2)cc(OC)c1` (stereo not drawn), 80 nM.
Same read-out and setting: for `c1ccc(CN[C@H]2CC[C@H](Nc3ccc4[nH]ncc4c3)CC2)cc1` the value was 520 nM; for `Nc1cccc(CN2CCCC(Nc3ccc4[nH]ncc4c3)C2)c1` (stereo not drawn), 35 nM.
Turning to `O=C(Nc1ccc2[nH]ncc2c1)NC1CCN(Cc2ccccc2)CC1`, the IC50 in series [1] is recorded as > 10000 nM.
For `c1ccc(CN2CCC(Nc3ccc4[nH]ncc4c3)CC2)cc1`, the results for the solubility in series [2], in series [3] and in series [4] were 495 µg/mL (≈ 1620 µM), 881 µg/mL (≈ 2880 µM) and 794 µg/mL (≈ 2590 µM), respectively.
In the case of `Fc1ccc(CN2CCCC(Nc3ccc4[nH]ncc4c3)C2)cc1` (stereo not drawn), the IC50 in series [1] was found to be 25 nM.
For `c1ccc(CN2CCCC(Oc3ccc4[nH]ncc4c3)C2)cc1` (stereo not drawn), the IC50 in series [1] is recorded as 10 nM.
In series [1], `COc1ccc(CN2CCCC(Nc3ccc4[nH]ncc4c3)C2)cc1` (stereo not drawn) yielded an IC50 of 16 nM.
In series [1], `c1cncc(CN2CCCC(Nc3ccc4[nH]ncc4c3)C2)c1` (stereo not drawn) had an IC50 of 72 nM.

As usually defined, the IC50 is the concentration needed to halve the response being measured. One may read the solubility as the dissolved amount per volume that the medium holds. Low readings indicate a poorly soluble substance, high ones a readily soluble substance.
